From US4769374A, “Tetrahydroisoquinoline ethyl esters of 1,4-dihydropyridines and antihypertensive compositions” (Poli Industria Chimica S.p.A., priority 1984, dated 1988)

Tests used:
in vivo = conditions: mouse, mice of both sexes, oral, day 14 of observation
Method: The acute toxicity was determined on mice of both sexes upon oral administration of the compounds to be tested as a suspension in carboxymethylcellulose containing 0.5% of physiologic solution, and it was expressed as an LD50 value at day 14 of observation.

[1] = tested on: spontaneous hypertensive rats (systolic pressure of the caudal artery); assay: Antihypertensive activity per os in spontaneous hypertensive rats; assay type: in vivo, rat; conditions: 3 mg/kg p.o., percentage of the decrease of the systolic pressure
Method: The antihypertensive activity was determined by administering spontaneous hypertensive rats with the compounds of the invention, by oral route, as a suspension in carboxymethylcellulose containing 0.5% of physiologic solution. […] The obtained results are reported in Table 2, and are expressed as the percentage of the decrease of the sistolic pressure after treatment.

Compound	LD50 at 336 h (in vivo) [mg/kg]	Pressure variations (pressure time 0 - less pressure after administration), 15 min. [1] [%]	Pressure variations (pressure time 0 - less pressure after administration), 1 h [1] [%]	Pressure variations (pressure time 0 - less pressure after administration), 3 h [1] [%]	Pressure variations (pressure time 0 - less pressure after administration), 5 h [1] [%]
CCOC(=O)C1=C(C)NC(C)=C(C(=O)OCCN2CCc3ccccc3C2)C1c1cccc([N+](=O)[O-])c1 (stereo not drawn) [I, R = C2 H5]	1000	43 ± 10.2	31 ± 7.1	22 ± 9.4	11 ± 6.9
COC(=O)C1=C(C)NC(C)=C(C(=O)OCCN2CCc3ccccc3C2)C1c1cccc([N+](=O)[O-])c1.Cl (stereo not drawn) [I, R = CH3, 2-(1,2,3,4-Tetrahydro-isoquinoline-2-yl)ethyl 1,4-dihydro-2,6-dimethyl-4-(3-nitrophenyl)-5-methoxycarbonyl-pyridine-3-carboxylate, mono-hydrochloride]	1000	54 ± 6.4	86 ± 7.3	73 ± 12.8	49 ± 8.7
CC1=C(C(=O)OCCN2CCc3ccccc3C2)C(c2cccc([N+](=O)[O-])c2)C(C(=O)OC(C)C)=C(C)N1 (stereo not drawn) [I, R = CH(CH3)2]	1000	39 ± 7.6	38 ± 6.9	18 ± 6.1	2 ± 3.1
COC(=O)C1=C(C)NC(C)=C(C(=O)OCCN(C)Cc2ccccc2)C1c1cccc([N+](=O)[O-])c1 (stereo not drawn) [Nicardipine, reference compound]	350	49 ± 11.3	52 ± 9.7	36 ± 6.2	21 ± 5.8
COC(=O)C1=C(C)NC(C)=C(C(=O)OC)C1c1ccccc1[N+](=O)[O-] [Nifedipine, reference compound]	–	41 ± 5.4	23 ± 6.1	12 ± 4.3	9 ± 5.6
